From patent US12447153B2, “HER2 mutation inhibitors” (Array BioPharma Inc., priority 2021, dated 2025)

Key:
[1] = molecular target: ErbB2 WT (Homo sapiens (Human), UniProt P04626); assay: ErbB Enzyme Assay (HTRF KinEASE-TK), Assay 2; assay type: biochemical; details: ErbB2 WT enzyme
[2] = molecular target: EGFR (Homo sapiens (Human), UniProt P00533); assay: ErbB Enzyme Assay (HTRF KinEASE-TK), Assay 3; assay type: biochemical; details: EGFR enzyme
[3] = molecular target: ErbB2 with Exon 20 YVMA insertion (HER2-YVMA) (Homo sapiens (Human), UniProt P04626, INS775YVMA); assay: Cellular Phosphorylation Assay, Assay 4 (constitutive ErbB2 phosphorylation, NIH 3T3 cells); assay type: cell-based; details: ErbB2 YVMA phosphorylation
[4] = molecular target: EGFR wild type (EGFR WT) (Homo sapiens (Human), UniProt P00533); assay: Cellular Phosphorylation Assay, Assay 5 (EGF-stimulated EGFR phosphorylation, NIH 3T3 cells); assay type: cell-based; details: EGF-stimulated EGFR WT phosphorylation
EGFR wild type (EGFR WT), sequence (P00533 25-1210): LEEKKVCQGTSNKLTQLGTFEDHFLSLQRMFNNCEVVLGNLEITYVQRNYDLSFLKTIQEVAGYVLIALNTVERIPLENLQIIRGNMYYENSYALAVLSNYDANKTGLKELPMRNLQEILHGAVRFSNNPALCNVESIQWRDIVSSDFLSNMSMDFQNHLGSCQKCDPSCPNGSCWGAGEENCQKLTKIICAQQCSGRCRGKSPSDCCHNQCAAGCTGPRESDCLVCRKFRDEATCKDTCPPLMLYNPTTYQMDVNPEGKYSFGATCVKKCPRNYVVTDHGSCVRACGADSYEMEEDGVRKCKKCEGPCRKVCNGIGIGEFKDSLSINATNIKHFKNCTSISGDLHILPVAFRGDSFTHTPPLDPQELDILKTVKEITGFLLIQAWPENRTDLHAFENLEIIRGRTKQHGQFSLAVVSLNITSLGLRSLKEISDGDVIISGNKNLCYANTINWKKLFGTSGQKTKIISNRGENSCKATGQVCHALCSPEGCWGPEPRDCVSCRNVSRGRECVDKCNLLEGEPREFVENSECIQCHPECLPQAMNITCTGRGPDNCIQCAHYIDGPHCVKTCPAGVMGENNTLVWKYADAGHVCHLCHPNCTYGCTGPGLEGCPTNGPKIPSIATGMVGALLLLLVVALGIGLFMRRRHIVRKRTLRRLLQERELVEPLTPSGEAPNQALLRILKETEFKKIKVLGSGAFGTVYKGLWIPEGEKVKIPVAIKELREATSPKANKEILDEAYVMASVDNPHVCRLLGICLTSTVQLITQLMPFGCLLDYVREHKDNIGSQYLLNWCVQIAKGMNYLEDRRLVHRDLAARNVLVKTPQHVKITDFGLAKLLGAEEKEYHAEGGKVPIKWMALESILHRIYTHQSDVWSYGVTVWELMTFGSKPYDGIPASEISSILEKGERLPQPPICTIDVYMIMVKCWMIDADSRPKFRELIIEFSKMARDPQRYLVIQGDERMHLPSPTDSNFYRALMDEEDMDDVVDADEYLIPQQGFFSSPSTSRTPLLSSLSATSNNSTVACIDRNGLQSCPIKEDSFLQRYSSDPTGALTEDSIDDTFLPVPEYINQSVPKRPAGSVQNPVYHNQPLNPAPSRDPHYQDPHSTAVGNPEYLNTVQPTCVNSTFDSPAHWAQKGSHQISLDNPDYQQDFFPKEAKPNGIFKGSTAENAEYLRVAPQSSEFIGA

ErbB2 with Exon 20 YVMA insertion (HER2-YVMA), sequence (P04626 other isoform, or with tags, fused parts or gaps ins YVMA behind 775): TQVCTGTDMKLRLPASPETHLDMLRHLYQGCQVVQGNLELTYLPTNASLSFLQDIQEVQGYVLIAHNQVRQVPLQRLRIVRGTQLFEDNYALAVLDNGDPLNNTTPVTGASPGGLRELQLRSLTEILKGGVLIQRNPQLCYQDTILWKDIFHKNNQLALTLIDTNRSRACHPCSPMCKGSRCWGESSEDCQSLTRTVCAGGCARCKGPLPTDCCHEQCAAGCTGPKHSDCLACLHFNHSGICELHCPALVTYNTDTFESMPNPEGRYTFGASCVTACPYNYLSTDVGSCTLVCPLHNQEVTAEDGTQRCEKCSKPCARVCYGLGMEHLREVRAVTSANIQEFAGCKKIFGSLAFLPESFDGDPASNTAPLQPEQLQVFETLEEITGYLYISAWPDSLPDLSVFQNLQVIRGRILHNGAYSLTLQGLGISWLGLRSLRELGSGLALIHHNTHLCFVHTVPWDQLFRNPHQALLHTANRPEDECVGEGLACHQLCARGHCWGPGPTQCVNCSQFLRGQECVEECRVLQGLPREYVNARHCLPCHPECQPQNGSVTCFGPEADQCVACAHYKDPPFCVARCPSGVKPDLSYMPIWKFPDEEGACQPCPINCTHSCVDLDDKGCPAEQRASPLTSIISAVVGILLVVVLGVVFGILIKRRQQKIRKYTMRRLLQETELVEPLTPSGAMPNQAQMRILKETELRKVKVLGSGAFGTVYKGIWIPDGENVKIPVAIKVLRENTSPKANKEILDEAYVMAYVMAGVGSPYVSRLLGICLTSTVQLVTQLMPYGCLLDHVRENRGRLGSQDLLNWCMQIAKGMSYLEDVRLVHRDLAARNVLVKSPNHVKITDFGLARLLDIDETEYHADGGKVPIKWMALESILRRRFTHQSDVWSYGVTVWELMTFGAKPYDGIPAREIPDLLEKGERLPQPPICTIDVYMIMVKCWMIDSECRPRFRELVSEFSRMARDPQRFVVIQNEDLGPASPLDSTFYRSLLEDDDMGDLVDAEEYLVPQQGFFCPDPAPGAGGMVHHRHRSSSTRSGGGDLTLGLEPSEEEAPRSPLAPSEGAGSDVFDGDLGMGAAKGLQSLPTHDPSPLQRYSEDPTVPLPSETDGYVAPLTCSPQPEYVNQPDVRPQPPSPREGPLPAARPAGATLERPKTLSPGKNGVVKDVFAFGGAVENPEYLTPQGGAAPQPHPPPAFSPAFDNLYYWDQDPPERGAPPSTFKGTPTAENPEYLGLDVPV
ErbB2 WT, sequence (P04626 23-1255): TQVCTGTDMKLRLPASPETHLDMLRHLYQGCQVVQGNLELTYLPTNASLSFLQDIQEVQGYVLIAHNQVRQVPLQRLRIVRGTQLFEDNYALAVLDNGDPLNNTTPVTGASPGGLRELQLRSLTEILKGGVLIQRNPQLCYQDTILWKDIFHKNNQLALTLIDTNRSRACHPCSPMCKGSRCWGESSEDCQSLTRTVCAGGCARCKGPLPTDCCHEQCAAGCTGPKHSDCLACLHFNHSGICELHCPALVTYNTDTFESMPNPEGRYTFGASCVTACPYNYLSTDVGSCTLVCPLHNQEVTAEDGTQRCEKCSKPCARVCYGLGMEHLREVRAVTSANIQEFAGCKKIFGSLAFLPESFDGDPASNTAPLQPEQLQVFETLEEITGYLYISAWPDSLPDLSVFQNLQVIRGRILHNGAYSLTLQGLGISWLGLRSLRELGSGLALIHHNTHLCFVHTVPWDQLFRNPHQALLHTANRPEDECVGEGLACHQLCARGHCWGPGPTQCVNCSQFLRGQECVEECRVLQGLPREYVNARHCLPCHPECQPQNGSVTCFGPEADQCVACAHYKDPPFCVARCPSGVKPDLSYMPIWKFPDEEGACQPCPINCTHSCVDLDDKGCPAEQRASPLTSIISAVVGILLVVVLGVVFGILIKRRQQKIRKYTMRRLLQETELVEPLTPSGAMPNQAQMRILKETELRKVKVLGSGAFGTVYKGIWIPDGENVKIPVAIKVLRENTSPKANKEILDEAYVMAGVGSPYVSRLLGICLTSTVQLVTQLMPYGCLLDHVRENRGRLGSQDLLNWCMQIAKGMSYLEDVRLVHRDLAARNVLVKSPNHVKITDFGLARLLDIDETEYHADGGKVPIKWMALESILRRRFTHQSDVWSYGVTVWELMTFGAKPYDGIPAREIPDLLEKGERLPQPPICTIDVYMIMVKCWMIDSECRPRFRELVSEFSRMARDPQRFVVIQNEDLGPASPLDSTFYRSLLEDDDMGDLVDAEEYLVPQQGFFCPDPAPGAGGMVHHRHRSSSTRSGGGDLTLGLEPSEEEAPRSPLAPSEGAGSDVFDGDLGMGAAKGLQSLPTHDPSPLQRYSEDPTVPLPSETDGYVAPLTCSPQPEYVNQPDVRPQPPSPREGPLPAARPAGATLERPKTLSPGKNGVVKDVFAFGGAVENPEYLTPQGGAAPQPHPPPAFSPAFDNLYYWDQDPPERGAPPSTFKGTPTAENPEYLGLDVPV
EGFR, sequence (P00533 25-1210): as the sequence (P00533 25-1210) above

SMILES	IC50 [1]	IC50 [2]	IC50 [3]	IC50 [4]
CC#CC(=O)N1CCN(c2ccc3ncnc(Nc4ccc(Oc5ccn6ncnc6c5)c(C)c4F)c3n2)C[C@@H]1COC [Example 180, (R)-1-(4-(4-((4-([1,2,4]triazolo[1,5-a]pyridin-7-yloxy)-2-fluoro-3-methylphenyl)amino)pyrido[3,2-d]pyrimidin-6-yl)-2-(methoxymethyl)piperazin-1-yl)but-2-yn-1-one]	314 nM	≥ 10000 nM	73.4 nM	≥ 5000 nM
CC#CC(=O)N1CCN(c2ccc3ncnc(Nc4ccc(Oc5ccn6ncnc6c5)c(Cl)c4F)c3n2)CC12CC2 [Example 181, 1-(7-(4-((4-([1,2,4]triazolo[1,5-a]pyridin-7-yloxy)-3-chloro-2-fluorophenyl)amino)pyrido[3,2-d]pyrimidin-6-yl)-4,7-diazaspiro[2.5]octan-4-yl)but-2-yn-1-one]	11.7 nM	553 nM	35.3 nM	879 nM
CC#CC(=O)N1CCN(c2ccc3ncnc(Nc4ccc(Oc5ccn6ncnc6c5)c(C)c4F)c3n2)CC12CC2 [Example 182, 1-(7-(4-((4-([1,2,4]triazolo[1,5-a]pyridin-7-yloxy)-2-fluoro-3-methylphenyl)amino)pyrido[3,2-d]pyrimidin-6-yl)-4,7-diazaspiro[2.5]octan-4-yl)but-2-yn-1-one]	27.3 nM	6140 nM	76.1 nM	2730 nM
CC#CC(=O)N1CCN(c2ccc3ncnc(Nc4ccc(Oc5ccn6ncnc6c5)c(Cl)c4F)c3n2)C[C@@H]1C(F)(F)F [Example 183, (R)-1-(4-(4-((4-([1,2,4]triazolo[1,5-a]pyridin-7-yloxy)-3-chloro-2-fluorophenyl)amino)pyrido[3,2-d]pyrimidin-6-yl)-2-(trifluoromethyl)piperazin-1-yl)but-2-yn-1-one]	6.2 nM	73.3 nM	4.4 nM	79.3 nM
C=C(F)C(=O)N1CCN(c2ccc3ncnc(Nc4ccc(Oc5ccn6ncnc6c5)c(C)c4F)c3n2)CC1 [Example 185, 1-(4-(4-((4-([1,2,4]triazolo[1,5-a]pyridin-7-yloxy)-2-fluoro-3-methylphenyl)amino)pyrido[3,2-d]pyrimidin-6-yl)piperazin-1-yl)-2-fluoroprop-2-en-1-one]	128 nM	≥ 10000 nM	315 nM	≥ 5000 nM
C=C(F)C(=O)N1CCN(c2ccc3ncnc(Nc4ccc(Oc5ccn6ncnc6c5)c(C)c4F)c3n2)CC1(C)C [Example 187, 1-(4-(4-((4-([1,2,4]triazolo[1,5-a]pyridin-7-yloxy)-2-fluoro-3-methylphenyl)amino)pyrido[3,2-d]pyrimidin-6-yl)-2,2-dimethylpiperazin-1-yl)-2-fluoroprop-2-en-1-one]	100 nM	≥ 10000 nM	273 nM	≥ 5000 nM
CC#CC(=O)N1CCC12CN(c1ccc3ncnc(Nc4cc(C)c(Oc5ccn6ncnc6c5)cc4F)c3n1)C2 [Example 188, 1-(6-(4-((4-([1,2,4]triazolo[1,5-a]pyridin-7-yloxy)-2-fluoro-5-methylphenyl)amino)pyrido[3,2-d]pyrimidin-6-yl)-1,6-diazaspiro[3.3]heptan-1-yl)but-2-yn-1-one]	1450 nM	≥ 10000 nM	2020 nM	≥ 5000 nM
C=CC(=O)N1CCCC(c2ccc3ncnc(Nc4ccc(Oc5ccn6ncnc6c5)c(C)c4F)c3n2)CC1 (centres unmarked) [Example 189, 1-(4-(4-((4-([1,2,4]triazolo[1,5-a]pyridin-7-yloxy)-2-fluoro-3-methylphenyl)amino)pyrido[3,2-d]pyrimidin-6-yl)azepan-1-yl)prop-2-en-1-one]	11.1 nM	1280 nM	41.2 nM	1790 nM
C=CC(=O)N1[C@@H]2CC[C@H]1CC(c1ccc3ncnc(Nc4cc(C)c(Oc5ccn6ncnc6c5)cc4F)c3n1)C2 (stereo partly drawn) [Example 194, 1-((1R,5S)-3-(4-((4-([1,2,4]triazolo[1,5-a]pyridin-7-yloxy)-2-fluoro-5-methylphenyl)amino)pyrido[3,2-d]pyrimidin-6-yl)-8-azabicyclo[3.2.1]octan-8-yl)prop-2-en-1-one]	171 nM	5800 nM	33.9 nM	2780 nM
C=CC(=O)N1CC(c2ccc3ncnc(Nc4ccc(Oc5ccc6c(c5)ncn6C)c(C)c4F)c3n2)CCC12CC2 (centres unmarked) [Example 197, 1-(6-(4-((2-fluoro-3-methyl-4-((1-methyl-1H-benzo[d]imidazol-5-yl)oxy)phenyl)amino)pyrido[3,2-d]pyrimidin-6-yl)-4-azaspiro[2.5]octan-4-yl)prop-2-en-1-one]	21.1 nM	650 nM	35.2 nM	853 nM
C=CC(=O)N1CCCC(c2ccc3ncnc(Nc4ccc(Oc5ccn6ncnc6c5)c(C)c4F)c3n2)C1 (centres unmarked) [Example 198, 1-(3-(4-((4-([1,2,4]triazolo[1,5-a]pyridin-7-yloxy)-2-fluoro-3-methylphenyl)amino)pyrido[3,2-d]pyrimidin-6-yl)piperidin-1-yl)prop-2-en-1-one]	24.2 nM	342 nM	17 nM	809 nM
C=CC(=O)N1C[C@H]2C[C@H](c3ccc4ncnc(Nc5ccc(Oc6ccn7ncnc7c6)c(C)c5F)c4n3)C[C@H]2C1 [Example 200, 1-((3aR,5s,6aS)-5-(4-((4-([1,2,4]triazolo[1,5-a]pyridin-7-yloxy)-2-fluoro-3-methylphenyl)amino)pyrido[3,2-d]pyrimidin-6-yl)hexahydrocyclopenta[c]pyrrol-2(1H)-yl)prop-2-en-1-one]	16.2 nM	2780 nM	83.5 nM	≥ 5000 nM
C=CC(=O)N1C[C@H]2C[C@H](c3ccc4ncnc(Nc5cc(C)c(Oc6ccn7ncnc7c6)cc5F)c4n3)C[C@H]2C1 [Example 201, 1-((3aR,5s,6aS)-5-(4-((4-([1,2,4]triazolo[1,5-a]pyridin-7-yloxy)-2-fluoro-5-methylphenyl)amino)pyrido[3,2-d]pyrimidin-6-yl)hexahydrocyclopenta[c]pyrrol-2(1H)-yl)prop-2-en-1-one]	68.1 nM	9450 nM	213 nM	≥ 5000 nM
C=CC(=O)N1CCCCC(c2ccc3ncnc(Nc4ccc(Oc5ccn6ncnc6c5)c(C)c4)c3n2)C1 (centres unmarked) [Example 204, 1-(3-(4-((4-([1,2,4]triazolo[1,5-a]pyridin-7-yloxy)-3-methylphenyl)amino)pyrido[3,2-d]pyrimidin-6-yl)azepan-1-yl)prop-2-en-1-one]	13.2 nM	900 nM	20.8 nM	2940 nM
C=CC(=O)N1[C@@H]2CC[C@H]1C[C@@H](c1ccc3ncnc(Nc4cc(C)c(Oc5ccn6ncnc6c5)cc4F)c3n1)C2 [Example 206, 1-((1R,3r,5S)-3-(4-((4-([1,2,4]triazolo[1,5-a]pyridin-7-yloxy)-2-fluoro-5-methylphenyl)amino)pyrido[3,2-d]pyrimidin-6-yl)-8-azabicyclo[3.2.1]octan-8-yl)prop-2-en-1-one]	151 nM	4770 nM	115 nM	≥ 5000 nM
C=C(F)C(=O)N1[C@@H]2CC[C@H]1C[C@@H](c1ccc3ncnc(Nc4cc(C)c(Oc5ccn6ncnc6c5)cc4F)c3n1)C2 [Example 207, 1-((1R,3r,5S)-3-(4-((4-([1,2,4]triazolo[1,5-a]pyridin-7-yloxy)-2-fluoro-5-methylphenyl)amino)pyrido[3,2-d]pyrimidin-6-yl)-8-azabicyclo[3.2.1]octan-8-yl)-2-fluoroprop-2-en-1-one]	150 nM	≥ 10000 nM	685 nM	≥ 5000 nM
CC#CC(=O)N1[C@@H]2CC[C@H]1C[C@@H](c1ccc3ncnc(Nc4cc(C)c(Oc5ccn6ncnc6c5)cc4F)c3n1)C2 [Example 208, 1-((1R,3r,5S)-3-(4-((4-([1,2,4]triazolo[1,5-a]pyridin-7-yloxy)-2-fluoro-5-methylphenyl)amino)pyrido[3,2-d]pyrimidin-6-yl)-8-azabicyclo[3.2.1]octan-8-yl)but-2-yn-1-one]	172 nM	≥ 10000 nM	328 nM	≥ 5000 nM
C=CC(=O)N1[C@@H]2CC[C@H]1C[C@@H](c1ccc3ncnc(Nc4ccc(Oc5ccn6ncnc6c5)c(C)c4)c3n1)C2 [Example 215, 1-((1R,3r,5S)-3-(4-((4-([1,2,4]triazolo[1,5-a]pyridin-7-yloxy)-3-methylphenyl)amino)pyrido[3,2-d]pyrimidin-6-yl)-8-azabicyclo[3.2.1]octan-8-yl)prop-2-en-1-one]	29.5 nM	3310 nM	29.5 nM	≥ 5000 nM
C=CC(=O)N1C[C@H]2CC[C@@H](C1)[C@@H]2c1ccc2ncnc(Nc3ccc(Oc4ccn5ncnc5c4)c(C)c3)c2n1 [Example 221, 1-((1R,5S,8r)-8-(4-((4-([1,2,4]triazolo[1,5-a]pyridin-7-yloxy)-3-methylphenyl)amino)pyrido[3,2-d]pyrimidin-6-yl)-3-azabicyclo[3.2.1]octan-3-yl)prop-2-en-1-one]	28.5 nM	2690 nM	78 nM	≥ 5000 nM
C=CC(=O)N1C[C@H]2CC[C@@H](C1)[C@@H]2c1ccc2ncnc(Nc3ccc(Oc4ccn5ncnc5c4)c(C)c3F)c2n1 [Example 223, 1-((1R,5S,8r)-8-(4-((4-([1,2,4]triazolo[1,5-a]pyridin-7-yloxy)-2-fluoro-3-methylphenyl)amino)pyrido[3,2-d]pyrimidin-6-yl)-3-azabicyclo[3.2.1]octan-3-yl)prop-2-en-1-one]	48.9 nM	1960 nM	145 nM	≥ 5000 nM
